Series [1] in a line: Miscibility of sesame oil in 40% IPA/HFA 134a. The class given is physicochemical. The conditions noted are these: based on 10% w/v dronabinol in sesame oil. How it is done: In some embodiments, formulations deliver between 0.25 mg and 2 mg dose of dronabinol after application. Table 4 details the % w/w dronabinol required in the canister to achieve such doses for different actuator volumes available ([…]). The miscibility of sesame oil in 40% IPA/HFA 134a has been determined to be 7.2% w/w, equivalent to 0.8% dronabinol, based on 10% w/v dronabinol in sesame oil. Therefore, the dose of dronabinol (mg) produced from each of the difference actuator volumes based on a level of 0.8% w/w dronabinol in canisters has been presented in Table 5.

For series [2] the following is noted: cited from earlier work.
For series [3] the following is noted: most pharmacological tests; Ophthalmic Res. (1992) 24:142-149; cited from earlier work.
For series [4] the following is noted: versus Δ^9-THC; oxidation to cannabinol, shelf life; cited from earlier work.

Each structure is given as a SMILES string.

Regarding `CCCCCc1cc(O)c2c(c1)OC(C)(C)C1CCC(C)=CC21` (single isomer, unassigned; (-)) [dronabinol, (−)-trans-Δ^9-tetrahydrocannabinol], the “Level of dronabinol equivalent to the sesame oil miscibility limit” value in series [1] stood at 0.8%. Moreover, in series [2], the Solubility in water entry is “insoluble”.
For `CCCCCc1cc(O)c2c(c1)OC(C)(C)[C@@H]1CC=C(C)C[C@@H]21` (relative stereo) [Δ^8-THC, (−)-trans-Δ^8-tetrahydrocannabinol], in series [3], the “Potency compared with Δ^9-THC” value was “less potent”. Also, in series [4], the “Stability compared with Δ^9-THC” value was “more stable”.

These data come from US12419896B2, “Compositions and dosage forms for oral delivery” (RHODES TECHNOLOGIES, priority 2018, dated 2025).
